From US8952024B2, “Herbicidal pyrimidone derivatives” (E I du Pont de Nemours and Company, priority 2009, dated 2015)

Columns and labels:
Format in all cases: in vivo
[1] = system: barnyardgrass (Echinochloa crus-galli); test: Test A pre-/postemergence plant response
Procedure, shortened: (§1)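 Each species was treated preemergence via directed soil spray and postemergence at the one- to two-leaf stage, with compounds formulated in a non-phytotoxic solvent plus surfactant. Visual injury relative to untreated controls was rated after about ten days on a 0–100 scale.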

[2] = system: corn (Zea mays); test: Test A pre-/postemergence plant response
Procedure, shortened: as §1

[3] = system: giant foxtail (Setaria faberii); test: Test A pre-/postemergence plant response
Procedure, shortened: as §1

[4] = system: large crabgrass (Digitaria sanguinalis); test: Test A pre-/postemergence plant response
Procedure, shortened: as §1

[5] = system: morningglory (Ipomoea spp.); test: Test A pre-/postemergence plant response
Procedure, shortened: as §1

[6] = system: pigweed (Amaranthus retroflexus); test: Test A pre-/postemergence plant response
Procedure, shortened: as §1

[7] = system: velvetleaf (Abutilon theophrasti); test: Test A pre-/postemergence plant response
Procedure, shortened: as §1

[8] = system: wheat (Triticum aestivum); test: Test A pre-/postemergence plant response
Procedure, shortened: as §1

[9] = system: barnyardgrass (Echinochloa crus-galli); test: Test B flooded paddy test; conditions: for Plant response rating, Flood, Barnyardgrass: 250 g ai/ha, flooded paddy test, visual rating on 0 to 100 scale (0 no effect, 100 complete control) after 13 to 15 days; for Plant response rating, Barnyardgrass: Flood (flooded paddy test), 13 to 15 days
Procedure, shortened: (§2)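 Post-flood paddy application: compounds are introduced into water 3 cm deep over the soil, reaching plants at the 2-leaf stage. The water level is maintained, and after 13–15 days under greenhouse conditions, response is judged by eye relative to controls, where 100 means complete control.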

[10] = system: ducksalad (Heteranthera limosa); test: Test B flooded paddy test; conditions: for Plant response rating, Flood, Ducksalad: 250 g ai/ha, flooded paddy test, visual rating on 0 to 100 scale (0 no effect, 100 complete control) after 13 to 15 days; for Plant response rating, Ducksalad: Flood (flooded paddy test), 13 to 15 days
Procedure, shortened: as §2

[11] = system: rice (Oryza sativa); test: Test B flooded paddy test; conditions: for Plant response rating, Flood, Rice: 250 g ai/ha, flooded paddy test, visual rating on 0 to 100 scale (0 no effect, 100 complete control) after 13 to 15 days; for Plant response rating, Rice: Flood (flooded paddy test), 13 to 15 days
Procedure, shortened: as §2

[12] = system: umbrella sedge (Cyperus difformis); test: Test B flooded paddy test; conditions: for Plant response rating, Flood, Sedge, Umbrella: 250 g ai/ha, flooded paddy test, visual rating on 0 to 100 scale (0 no effect, 100 complete control) after 13 to 15 days; for Plant response rating, Sedge, Umbrella: Flood (flooded paddy test), 13 to 15 days
Procedure, shortened: as §2

[13] = Postemergence, 125 g ai/ha, visual injury, 0 to 100 scale (0 no effect, 100 complete control), approx. ten days
[14] = Postemergence, 500 g ai/ha, 0 to 100 scale, 0 = no effect, 100 = complete control, approx. ten days
[15] = Preemergence, 125 g ai/ha, 0 to 100 scale, 0 = no effect, 100 = complete control
[16] = Preemergence, 500 g ai/ha, visual injury, 0 to 100 scale (0 no effect, 100 complete control), approx. ten days
[17] = 62 g ai/ha, scale of 0 to 100 where 0 is no effect and 100 is complete control
[18] = 31 g ai/ha, scale of 0 to 100 where 0 is no effect and 100 is complete control
[19] = 125 g ai/ha, scale 0 to 100, 0 is no effect, 100 is complete control

Cc1cc(F)ccc1-n1c(-c2ccccc2)ncc(C(=O)C2=C(O)CCCC2=O)c1=O [Compound 48]
Barnyardgrass plant response rating [1, 13]: 80 | Plant response rating, Barnyardgrass [1, 14]: 90 | Plant response rating, Barnyardgrass [1, 15]: 20 | Plant response rating, Barnyardgrass [1, 16]: 100 | Corn plant response rating [2, 13]: 0 | Plant response rating, Corn [2, 14]: 30 | Plant response rating, Corn [2, 15]: 0 | Plant response rating, Corn [2, 16]: 0 | Foxtail, Giant plant response rating [3, 13]: 90 | Plant response rating, Foxtail, Giant [3, 14]: 100 | Plant response rating, Foxtail, Giant [3, 15]: 70 | Plant response rating, Foxtail, Giant [3, 16]: 90 | Crabgrass, Large plant response rating [4, 13]: 90 | Plant response rating, Crabgrass, Large [4, 14]: 100 | Plant response rating, Crabgrass, Large [4, 15]: 90 | Plant response rating, Crabgrass, Large [4, 16]: 100 | Morningglory plant response rating [5, 13]: 90 | Plant response rating, Morningglory [5, 14]: 100 | Plant response rating, Morningglory [5, 15]: 40 | Plant response rating, Morningglory [5, 16]: 80 | Pigweed plant response rating [6, 13]: 100 | Plant response rating, Pigweed [6, 14]: 100 | Plant response rating, Pigweed [6, 15]: 90 | Plant response rating, Pigweed [6, 16]: 100 | Velvetleaf plant response rating [7, 13]: 100 | Plant response rating, Velvetleaf [7, 14]: 100 | Plant response rating, Velvetleaf [7, 15]: 80 | Plant response rating, Velvetleaf [7, 16]: 100 | Wheat plant response rating [8, 13]: 0 | Plant response rating, Wheat [8, 14]: 20 | Plant response rating, Wheat [8, 15]: 0 | Plant response rating, Wheat [8, 16]: 0 | Plant response rating, Flood, Barnyardgrass [9]: 35 | Plant response rating, Barnyardgrass [9, 17]: 0 | Plant response rating, Flood, Ducksalad [10]: 85 | Plant response rating, Ducksalad [10, 17]: 0 | Plant response rating, Flood, Rice [11]: 65 | Plant response rating, Rice [11, 17]: 0 | Plant response rating, Flood, Sedge, Umbrella [12]: 75 | Plant response rating, Sedge, Umbrella [12, 17]: 40

CCn1c(-c2ccccc2)ncc(C(=O)C2=C(O)CCCC2=O)c1=O [Compound 49]
Barnyardgrass plant response rating [1, 13]: 60 | Plant response rating, Barnyardgrass [1, 14]: 90 | Plant response rating, Barnyardgrass [1, 15]: 20 | Plant response rating, Barnyardgrass [1, 16]: 60 | Corn plant response rating [2, 13]: 0 | Plant response rating, Corn [2, 14]: 20 | Plant response rating, Corn [2, 15]: 0 | Plant response rating, Corn [2, 16]: 0 | Foxtail, Giant plant response rating [3, 13]: 50 | Plant response rating, Foxtail, Giant [3, 14]: 80 | Plant response rating, Foxtail, Giant [3, 15]: 20 | Plant response rating, Foxtail, Giant [3, 16]: 50 | Crabgrass, Large plant response rating [4, 13]: 90 | Plant response rating, Crabgrass, Large [4, 14]: 90 | Plant response rating, Crabgrass, Large [4, 15]: 60 | Plant response rating, Crabgrass, Large [4, 16]: 90 | Morningglory plant response rating [5, 13]: 100 | Plant response rating, Morningglory [5, 14]: 100 | Plant response rating, Morningglory [5, 15]: 30 | Plant response rating, Morningglory [5, 16]: 80 | Pigweed plant response rating [6, 13]: 100 | Plant response rating, Pigweed [6, 14]: 100 | Plant response rating, Pigweed [6, 15]: 80 | Plant response rating, Pigweed [6, 16]: 90 | Velvetleaf plant response rating [7, 13]: 100 | Plant response rating, Velvetleaf [7, 14]: 100 | Plant response rating, Velvetleaf [7, 15]: 80 | Plant response rating, Velvetleaf [7, 16]: 90 | Wheat plant response rating [8, 13]: 0 | Plant response rating, Wheat [8, 14]: 0 | Plant response rating, Wheat [8, 15]: 0 | Plant response rating, Wheat [8, 16]: 0 | Plant response rating, Flood, Barnyardgrass [9]: 0 | Plant response rating, Barnyardgrass [9, 18]: 0 | Plant response rating, Barnyardgrass [9, 17]: 0 | Plant response rating, Barnyardgrass [9, 19]: 0 | Plant response rating, Flood, Ducksalad [10]: 70 | Plant response rating, Ducksalad [10, 18]: 0 | Plant response rating, Ducksalad [10, 17]: 0 | Plant response rating, Ducksalad [10, 19]: 40 | Plant response rating, Flood, Rice [11]: 15 | Plant response rating, Rice [11, 18]: 0 | Plant response rating, Rice [11, 17]: 0 | Plant response rating, Rice [11, 19]: 10 | Plant response rating, Flood, Sedge, Umbrella [12]: 85 | Plant response rating, Sedge, Umbrella [12, 18]: 0 | Plant response rating, Sedge, Umbrella [12, 17]: 0 | Plant response rating, Sedge, Umbrella [12, 19]: 0

CCCn1c(-c2ccccc2)ncc(C(=O)C2=C(O)CCCC2=O)c1=O [Compound 50]
Barnyardgrass plant response rating [1, 13]: 90 | Plant response rating, Barnyardgrass [1, 14]: 100 | Plant response rating, Barnyardgrass [1, 15]: 50 | Plant response rating, Barnyardgrass [1, 16]: 90 | Corn plant response rating [2, 13]: 0 | Plant response rating, Corn [2, 14]: 30 | Plant response rating, Corn [2, 15]: 0 | Plant response rating, Corn [2, 16]: 0 | Foxtail, Giant plant response rating [3, 13]: 90 | Plant response rating, Foxtail, Giant [3, 14]: 90 | Plant response rating, Foxtail, Giant [3, 15]: 50 | Plant response rating, Foxtail, Giant [3, 16]: 80 | Crabgrass, Large plant response rating [4, 13]: 90 | Plant response rating, Crabgrass, Large [4, 14]: 90 | Plant response rating, Crabgrass, Large [4, 15]: 90 | Plant response rating, Crabgrass, Large [4, 16]: 100 | Morningglory plant response rating [5, 13]: 80 | Plant response rating, Morningglory [5, 14]: 80 | Plant response rating, Morningglory [5, 15]: 40 | Plant response rating, Morningglory [5, 16]: 80 | Pigweed plant response rating [6, 13]: 100 | Plant response rating, Pigweed [6, 14]: 100 | Plant response rating, Pigweed [6, 15]: 90 | Plant response rating, Pigweed [6, 16]: 100 | Velvetleaf plant response rating [7, 13]: 100 | Plant response rating, Velvetleaf [7, 14]: 100 | Plant response rating, Velvetleaf [7, 15]: 80 | Plant response rating, Velvetleaf [7, 16]: 90 | Wheat plant response rating [8, 13]: 0 | Plant response rating, Wheat [8, 14]: 0 | Plant response rating, Wheat [8, 15]: 0 | Plant response rating, Wheat [8, 16]: 0 | Plant response rating, Flood, Barnyardgrass [9]: 60 | Plant response rating, Barnyardgrass [9, 18]: 0 | Plant response rating, Barnyardgrass [9, 17]: 0 | Plant response rating, Barnyardgrass [9, 19]: 35 | Plant response rating, Flood, Ducksalad [10]: 85 | Plant response rating, Ducksalad [10, 18]: 70 | Plant response rating, Ducksalad [10, 17]: 75 | Plant response rating, Ducksalad [10, 19]: 85 | Plant response rating, Flood, Rice [11]: 20 | Plant response rating, Rice [11, 18]: 0 | Plant response rating, Rice [11, 17]: 10 | Plant response rating, Rice [11, 19]: 15 | Plant response rating, Flood, Sedge, Umbrella [12]: 95 | Plant response rating, Sedge, Umbrella [12, 18]: 75 | Plant response rating, Sedge, Umbrella [12, 17]: 75 | Plant response rating, Sedge, Umbrella [12, 19]: 85

Cc1ccc(F)c(-n2c(-c3ccccc3)ncc(C(=O)C3=C(O)CCCC3=O)c2=O)c1 [Compound 51]
Barnyardgrass plant response rating [1, 13]: 90 | Plant response rating, Barnyardgrass [1, 14]: 90 | Plant response rating, Barnyardgrass [1, 15]: 10 | Plant response rating, Barnyardgrass [1, 16]: 90 | Corn plant response rating [2, 13]: 0 | Plant response rating, Corn [2, 14]: 80 | Plant response rating, Corn [2, 15]: 0 | Plant response rating, Corn [2, 16]: 0 | Foxtail, Giant plant response rating [3, 13]: 90 | Plant response rating, Foxtail, Giant [3, 14]: 90 | Plant response rating, Foxtail, Giant [3, 15]: 30 | Plant response rating, Foxtail, Giant [3, 16]: 100 | Crabgrass, Large plant response rating [4, 13]: 90 | Plant response rating, Crabgrass, Large [4, 14]: 100 | Plant response rating, Crabgrass, Large [4, 15]: 30 | Plant response rating, Crabgrass, Large [4, 16]: 100 | Morningglory plant response rating [5, 13]: 100 | Plant response rating, Morningglory [5, 14]: 100 | Plant response rating, Morningglory [5, 16]: 90 | Pigweed plant response rating [6, 13]: 100 | Plant response rating, Pigweed [6, 14]: 100 | Plant response rating, Pigweed [6, 15]: 90 | Plant response rating, Pigweed [6, 16]: 100 | Velvetleaf plant response rating [7, 13]: 100 | Plant response rating, Velvetleaf [7, 14]: 100 | Plant response rating, Velvetleaf [7, 15]: 70 | Plant response rating, Velvetleaf [7, 16]: 90 | Wheat plant response rating [8, 13]: 0 | Plant response rating, Wheat [8, 14]: 0 | Plant response rating, Wheat [8, 15]: 0 | Plant response rating, Wheat [8, 16]: 0 | Plant response rating, Flood, Barnyardgrass [9]: 55 | Plant response rating, Barnyardgrass [9, 18]: 15 | Plant response rating, Barnyardgrass [9, 17]: 20 | Plant response rating, Barnyardgrass [9, 19]: 40 | Plant response rating, Flood, Ducksalad [10]: 95 | Plant response rating, Ducksalad [10, 18]: 0 | Plant response rating, Ducksalad [10, 17]: 30 | Plant response rating, Ducksalad [10, 19]: 85 | Plant response rating, Flood, Rice [11]: 60 | Plant response rating, Rice [11, 18]: 10 | Plant response rating, Rice [11, 17]: 15 | Plant response rating, Rice [11, 19]: 25 | Plant response rating, Flood, Sedge, Umbrella [12]: 90 | Plant response rating, Sedge, Umbrella [12, 18]: 30 | Plant response rating, Sedge, Umbrella [12, 17]: 40 | Plant response rating, Sedge, Umbrella [12, 19]: 85
